# According to patent US7842719B2 (priority 2002, dated 2010):
# Assays:
# BVDV-strain Pe515 = format: cell-based, bovine viral diarrhea virus
# Molt4/C8 = format: cell-based, human
# HIV-2 (ROD) = format: cell-based, human immunodeficiency virus
# VZV OKA = format: cell-based, varicella zoster virus
# L1210/0 = format: cell-based, murine
# HSV-2 (G) = format: cell-based, herpes simplex virus
# FM3A/0 = format: cell-based, murine
# HSV-1 (KOS) = format: cell-based, herpes simplex virus
# CMV AD-169 = format: cell-based, human cytomegalovirus
# HIV-1 (IIIB) = format: cell-based, human immunodeficiency virus
# CMV Davis = format: cell-based, human cytomegalovirus
# VV = format: cell-based, vaccinia virus
# VZV YS = format: cell-based, varicella zoster virus
# CEM/0 = format: cell-based, human
# BDV = format: cell-based, Border disease virus
# BVDV I cp = format: cell-based, Bovine viral diarrhea virus
compound,measurement,setting,value
"C[C@H]1[C@H](OC(=O)CCC(=O)O)O[C@@H]2O[C@@]3(C)CC[C@H]4[C@H](C)CC[C@@H]1[C@@]24OO3 [Artensunate, artesunate]",MTC MDBK (minimal toxic concentration),MDBK cells,0.4 µg/mL
same,cell toxicity,MDBK cells,stayed low
same,EC50 BVDV,BVDV-strain Pe515,0.07 µg/mL
same,activity against BVDV,BVDV-strain Pe515,strong anti-viral activity
"C[C@@H]1CC[C@H]2[C@@H](C)C(=O)O[C@@H]3O[C@@]4(C)CC[C@@H]1[C@]32OO4 [Artemisinin, artemisinin]",activity against tumor cell line,Molt4/C8,no interesting activity
same,cell toxicity,MDBK cells,stayed low
same,EC50 HIV-2 (ROD) (CEM),HIV-2 (ROD),>20 µg/mL
same,EC50 VZV (HEL) OKA,VZV OKA,>50 µg/mL
same,activity against tumor cell line,L1210/0,no interesting activity
same,EC50 HSV-2 (G) (E6SM),HSV-2 (G),240 µg/mL
same,antiviral activity against HSV-2,HSV-2 (G),showed antiviral activity
same,activity against tumor cell line,FM3A/0,no interesting activity
same,EC50 HSV-1 (KOS) (E6SM),HSV-1 (KOS),>400 µg/mL
same,EC50 CMV AD-169 (HEL),CMV AD-169,>50 µg/mL
same,EC50 HIV-1 (IIIB) (CEM),HIV-1 (IIIB),>20 µg/mL
same,EC50 BVDV,BVDV-strain Pe515,0.4 µg/mL
same,activity against BVDV,BVDV-strain Pe515,strong anti-viral activity
same,EC50 CMV Davis (HEL),CMV Davis,>50 µg/mL
same,EC50 VV (E6SM),VV,240 µg/mL
same,antiviral activity against VV,VV,showed antiviral activity
same,EC50 VZV (HEL) YS,VZV YS,>50 µg/mL
same,activity against tumor cell line,CEM/0,no interesting activity
"C[C@H]1[C@@H](O)O[C@@H]2O[C@@]3(C)CC[C@H]4[C@H](C)CC[C@@H]1[C@@]24OO3 [Dihydroartemisinin, dihydroartemisinin]",MTC MDBK (minimal toxic concentration),MDBK cells,0.4 µg/mL
same,cell toxicity,MDBK cells,stayed low
same,EC50 BVDV,BVDV-strain Pe515,0.05 µg/mL
same,activity against BVDV,BVDV-strain Pe515,strong anti-viral activity
"CO[C@H]1O[C@@H]2O[C@@]3(C)CC[C@H]4[C@H](C)CC[C@@H]([C@H]1C)[C@@]24OO3 [Artemether, artemether]",EC90,BDV,0.8 µg/mL
same,cell toxicity,MDBK cells,stayed low
same,EC50 BVDV,BVDV-strain Pe515,0.3 µg/mL
same,activity against BVDV,BVDV-strain Pe515,strong anti-viral activity
same,toxic concentration,Non infected cells,around 100 μg/ml
same,EC90,BVDV I cp,0.16 µg/mL
